# Experimental data: patent US11123341B2, “Butyrylcholinesterase inhibitors for treatment of opioid use disorder” (priority 2019, dated 2021)
# Tests used:
# heroin-induced lethality = test: Protection of mice against acute toxicity (lethality) of a lethal dose of heroin; format: in vivo; conditions: 10 min before heroin 25 mg/kg IV, n=6
# Description: (§1) All mice were allowed ad libitum access to food and water and maintained on a 12 h light/12 h dark cycle, with the lights on at 8:00 a.m. at a room temperature of 21-22° C. Experiments were performed in a same colony room in accordance with the Guide for the Care and Use of Laboratory Animals as adopted and promulgated by the National Institutes of Health. The animal protocol was approved by the IACUC (Institutional Animal Care and Use Committee) at the University of Kentucky.
# Heroin-induced acute toxicity was characterized in this study by the occurrence of death. […] Following the heroin administration, mice were immediately placed in containers for observation. The presence or absence of death was recorded for 6 hours following heroin administration.
# (§2) Heroin-induced acute toxicity was characterized by the lethality (occurrence of death). For the protection experiments, a single dose of ethopropazine was administrated (IV) prior to administration of a lethal dose (LD100) of heroin (e.g. 25 mg/kg, IV). At 10 min after IV administration of ethopropazine or saline (negative control), the mice were given a lethal dose (LD100) of heroin. The protection experiments were performed under various dose conditions (n=6 for each scenario).
# BChE = BChE (Homo sapiens, UniProt P06276); conditions: read-out: IC50 for BChE; cited from earlier work
# [1] = system: heroin-induced hyperactivity; test: Locomotor activity test of heroin-induced hyperactivity; format: in vivo, mice; conditions: 10 mg/kg IV, 10 min prior to heroin 2.5 mg/kg IP; n=8
# Description: as §1
# [2] = 1 mg/kg IV
# Description: as §2
# Sequence of BChE (P06276 29-602): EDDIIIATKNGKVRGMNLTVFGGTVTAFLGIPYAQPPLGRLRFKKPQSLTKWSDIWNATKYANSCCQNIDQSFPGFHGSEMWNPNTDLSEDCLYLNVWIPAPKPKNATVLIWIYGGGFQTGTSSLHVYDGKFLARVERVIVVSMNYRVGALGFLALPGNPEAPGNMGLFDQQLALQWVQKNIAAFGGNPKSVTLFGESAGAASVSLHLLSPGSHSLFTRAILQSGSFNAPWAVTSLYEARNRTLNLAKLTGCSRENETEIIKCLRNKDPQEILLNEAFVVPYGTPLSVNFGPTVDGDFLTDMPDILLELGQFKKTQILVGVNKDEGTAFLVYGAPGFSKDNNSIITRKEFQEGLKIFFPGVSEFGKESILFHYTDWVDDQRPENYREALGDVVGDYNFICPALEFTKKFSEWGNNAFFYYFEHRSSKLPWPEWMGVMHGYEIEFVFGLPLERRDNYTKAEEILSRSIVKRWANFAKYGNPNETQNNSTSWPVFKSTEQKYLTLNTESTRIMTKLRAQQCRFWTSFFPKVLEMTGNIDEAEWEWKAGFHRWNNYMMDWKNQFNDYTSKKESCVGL
Structure (SMILES),protection against heroin-induced lethality (heroin-induced lethality; ethopropazine 1 mg/kg IV),protection against heroin-induced lethality (heroin-induced lethality; ethopropazine 10 mg/kg IV),IC50 (BChE),effect on heroin-induced hyperactivity (total distance traveled) [1],protection against heroin-induced lethality (heroin-induced lethality; naltrexone 0.3 mg/kg IV),adverse effect observed in mice [2]
CCN(CC)C(C)CN1c2ccccc2Sc2ccccc21 (stereo not drawn) [ethopropazine],partial protection,protected all mice,210 to 300 nM,significantly attenuated heroin-induced hyperactivity,–,–
O=C1CC[C@@]2(O)[C@H]3Cc4ccc(O)c5c4[C@@]2(CCN3CC2CC2)[C@H]1O5 [naltrexone],–,–,–,–,partial protection,not able to stand and could hardly move at all
